Experimental data reported in ChEMBL document CHEMBL1201862, “PubChem BioAssay data set” (2004).
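Following 48 hours of exposure in 96-well plates, responses at five concentrations were used to interpolate endpoints linearly. GI50 = concentration required for 50% inhibition of growth.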 The source made the active and inactive calls. No stated cut-off is given here; in the data, active = GI50 up to about 1.1 µM and inactive = higher.

Key:
Experiment in all cases: NCI tumour cell line growth inhibition, 48 h
[1] = tested on: LXFL 529
[2] = tested on: M19-MEL
[3] = tested on: HOP-18
[4] = tested on: KM-20L2
[5] = tested on: RXF 631
[6] = tested on: DMS-114
[7] = tested on: XF498
[8] = tested on: DMS-273
[9] = tested on: SNB-78

Row | SMILES | GI50 [1] | GI50 [2] | GI50 [3] | GI50 [4] | GI50 [5] | GI50 [6] | GI50 [7] | GI50 [8] | GI50 [9]
1 | COC(=O)N/N=C/C(=C/Nc1ccccc1)[N+](=O)[O-] | > 100 µM (inactive) | > 100 µM (inactive) | > 100 µM (inactive) | > 100 µM (inactive) | > 100 µM (inactive) | > 100 µM (inactive) | > 100 µM (inactive) | > 100 µM (inactive) | –
2 | Nc1ncnc2c1nc(Cl)n2[C@@H]1O[C@@H]2COP(=O)(O)O[C@H]2[C@H]1O [TOCLADESINE] | – | > 300 µM (inactive) | > 109 µM (inactive) | 13.5 µM (inactive) | – | 26.7 µM (inactive) | – | 3.15 µM (inactive) | 165 µM (inactive)
3 | CCN(CC)c1ccc(C(=C2C=CC(=[N+](CC)CC)C=C2)c2ccc(N(CC)CC)cc2)cc1 | – | 0.0948 µM (active) | – | 0.184 µM (active) | 0.194 µM (active) | 0.0507 µM (active) | 0.0296 µM (active) | 0.137 µM (active) | 0.398 µM (active)
4 | Nc1nc(CCc2n[nH]c(N)n2)n[nH]1 | > 100 µM (inactive) | > 100 µM (inactive) | – | > 100 µM (inactive) | > 100 µM (inactive) | > 100 µM (inactive) | – | > 100 µM (inactive) | > 100 µM (inactive)
5 | Cc1ccc(S(=O)(=O)CNC(=S)CCCC(=S)NCS(=O)(=O)c2ccc(C)cc2)cc1 | 44.9 µM (inactive) | > 100 µM (inactive) | – | > 100 µM (inactive) | 41 µM (inactive) | – | > 100 µM (inactive) | 44.2 µM (inactive) | 78.9 µM (inactive)
6 | CCN(CC)CCCNc1ncc(C)c2c1c1ccc3c(O)cccc3c1n2C | 1.61 µM (inactive) | – | 0.635 µM (active) | 3.07 µM (inactive) | – | 1.39 µM (inactive) | 15.2 µM (inactive) | 0.76 µM (active) | 14.2 µM (inactive)
7 | C/C(=N\NC(N)=S)C(CN(CC(C)C)CC(C)C)C(=O)Nc1ccc(C)cc1C (stereo unspecified) | > 100 µM (inactive) | > 100 µM (inactive) | > 100 µM (inactive) | > 100 µM (inactive) | – | > 100 µM (inactive) | > 100 µM (inactive) | > 100 µM (inactive) | > 100 µM (inactive)
8 | N=C(N)NS(=O)(=O)c1ccc(NCc2c3ccccc3nc3ccccc23)cc1 | 12.8 µM (inactive) | 10 µM (inactive) | 9.18 µM (inactive) | 57.9 µM (inactive) | 4.82 µM (inactive) | 0.157 µM (active) | – | 2.1 µM (inactive) | 23.1 µM (inactive)
9 | CC(=O)NC1C(OCc2ccccc2)OC(COC(=O)CCCCCCCCCCNc2ccc([N+](=O)[O-])c3[nH]c4ccccc4c(=O)c23)C(O)C1OC(C)C(=O)NC(C)C(=O)NC(CCC(N)=O)C(=O)OCc1ccccc1 (stereo unspecified) | > 100 µM (inactive) | > 100 µM (inactive) | > 100 µM (inactive) | > 100 µM (inactive) | – | > 100 µM (inactive) | > 100 µM (inactive) | > 100 µM (inactive) | > 100 µM (inactive)
10 | O=C1CCCC[C@H]1[C@H]1CCC[C@@H]([C@H]2CCCCC2=O)C1=O | > 100 µM (inactive) | > 100 µM (inactive) | > 100 µM (inactive) | > 100 µM (inactive) | > 100 µM (inactive) | – | > 100 µM (inactive) | > 100 µM (inactive) | 3.44 µM (inactive)
11 | Sc1ccccc1S | > 100 µM (inactive) | > 100 µM (inactive) | > 100 µM (inactive) | > 100 µM (inactive) | > 100 µM (inactive) | > 100 µM (inactive) | > 100 µM (inactive) | > 100 µM (inactive) | > 100 µM (inactive)
12 | O=S(=O)(c1ccccc1)N1CCC1c1ccccc1 (stereo unspecified) | – | > 100 µM (inactive) | 51.5 µM (inactive) | > 100 µM (inactive) | > 100 µM (inactive) | 50.1 µM (inactive) | 51.9 µM (inactive) | > 100 µM (inactive) | > 100 µM (inactive)
13 | N#C[C-](C#N)[n+]1ccc(Cl)cc1 | 13.6 µM (inactive) | 12.4 µM (inactive) | – | 24.2 µM (inactive) | 17.4 µM (inactive) | 13.4 µM (inactive) | 19.3 µM (inactive) | 18.7 µM (inactive) | 17.9 µM (inactive)
14 | S=c1nc(N2CCCCC2)ss1 | 15.1 µM (inactive) | 18.2 µM (inactive) | 40.6 µM (inactive) | > 100 µM (inactive) | 29.4 µM (inactive) | 19.7 µM (inactive) | 20.1 µM (inactive) | 17.5 µM (inactive) | 32.2 µM (inactive)
15 | CCCCCCCC(=O)OCC1OC(n2cc(F)c(=O)[nH]c2=O)C(N)C(O)C1O (stereo unspecified) | > 100 µM (inactive) | > 100 µM (inactive) | > 100 µM (inactive) | > 100 µM (inactive) | – | > 100 µM (inactive) | – | > 100 µM (inactive) | > 100 µM (inactive)
16 | COS(=O)CCOC(=O)c1ccccc1SSc1ccccc1C(=O)OCCS(=O)OC (stereo unspecified) | 18.5 µM (inactive) | 21.2 µM (inactive) | > 100 µM (inactive) | 61 µM (inactive) | – | 16 µM (inactive) | 29.8 µM (inactive) | 26.4 µM (inactive) | > 100 µM (inactive)
17 | CC1=C(C(=O)CC(=O)C(=O)Nc2cccc(Cl)c2C)Sc2ccccc2N1 | > 100 µM (inactive) | > 100 µM (inactive) | > 100 µM (inactive) | – | > 100 µM (inactive) | > 100 µM (inactive) | > 100 µM (inactive) | – | > 100 µM (inactive)
18 | Cc1ccccc1C1=[N+]([O-])c2ccc(Cl)cc2C1=O | 12 µM (inactive) | 8.05 µM (inactive) | 14.1 µM (inactive) | 4.51 µM (inactive) | 3.72 µM (inactive) | – | 4.39 µM (inactive) | – | –
19 | COc1cccc2c1C(=O)c1c(O)c3c(c(O)c1C2=O)CC(O)(C(C)=O)CC3OC1CC([N+](C)(C)C)C(O)C(C)O1 (stereo unspecified) | 64.9 µM (inactive) | 70.6 µM (inactive) | > 100 µM (inactive) | > 100 µM (inactive) | 31.1 µM (inactive) | > 100 µM (inactive) | 10.7 µM (inactive) | 27.5 µM (inactive) | > 100 µM (inactive)
20 | Cc1c2cc[n+](C)cc2c(C)c2c1[nH]c1ccc(OC(C)(C)C)cc12 | > 100 µM (inactive) | > 100 µM (inactive) | > 100 µM (inactive) | – | – | > 100 µM (inactive) | – | > 100 µM (inactive) | > 100 µM (inactive)
